Measurements published in patent US11878013B2, “Isoquinoline derivative, preparing method thereof, and pharmaceutical composition for preventing or treating autophagy related diseases containing the same as an active ingredient” (Korea Research Institute of Chemical Technology, priority 2021, dated 2024).

Experiments:
[1] = test system: Raw 264.7 mouse macrophages; experiment: Cell viability of LPS-treated Raw 264.7 macrophages; type: cell-based
Procedure: Raw 264.7 mouse macrophages were aliquoted in a 96-well plate at the density of 1×10^5 cells/well and stabilized in a 37° C., 5% CO2 incubator for 24 hours. The Raw 264.7 cells were treated with the compound of Example 1 by concentration. After 1 hour, the cells were treated with 1 ug/ml of LPS and cultured for 24 hours. For the measurement of NO production, 40 mg/ml of Griess reagent was prepared and it was mixed with the culture supernatant at the same ratio. The mixture was reacted at room temperature for 15 minutes, and absorbance was measured at 540 nm. Based on the results obtained therefrom, the cell viability and NO production rate were expressed as percentages in terms of LPS.

hERG channel protein = biological target: T1, hERG channel protein (Homo sapiens, UniProt Q12809); experiment: hERG ligand binding test (fluorescence polarization); conditions: at 10 μM
T1 construct: expressed in transfected cells; host or cells: HEK-293
Procedure: In order to evaluate the possibility of inducing cardiotoxicity of the compound of Example 1 of the present invention in vivo, the inhibitory potential to the hERG (human ether-a-go-go related gene) K^+ channel protein, known as a main cause of arrhythmias, was tested.
First, a ligand binding test was performed to evaluate the binding force of the compound of Example 1 binding to the hERG channel protein in vitro. A biological membrane containing the hERG channel protein was aliquoted in a 384-black well plate (10 μl/well) at room temperature, and DMSO, E-4031 (positive control), and the compound of Example 1 prepared to be 4 times the final test concentration were added thereto (5 μl/well). A tracer material with a fluorescent material attached to astemizole, known as a selective binding substance to the hERG channel protein, was dispensed into a mixture of the two solutions (5 μl/well), and then incubated for 2 hours at room temperature where light was blocked. In order to excite the tracer material included in the reaction solution, the light of 530 nm was irradiated and the light of 585 nm returned back was measured by the polarization method. […] The binding force of the test material to the hERG protein was expressed as the inhibition rate (%) compared to the group treated with DMSO.

zebrafish = experiment: Whitening effect: melanin synthesis / melanocyte formation in zebrafish; type: in vivo
Source text: When observing the regeneration of melanin pigment, after inhibiting the formation of melanin pigment, it can be investigated by limiting it to the melanocyte generation pathway, and it is easy to observe the melanin synthesized in the initial stage of development. Therefore, zebrafish is more useful for the study of melanin pigment changes compared to other animal models (Logan D W, Burn S F, Jackson I J. (2006) Regulation of pigmentation in zebrafish melanophores. Pigment Cell Res. 2006 June; 19(3):206-13.).
Particularly, zebrafish fertilized eggs 10 hours after fertilization were placed in a 24-well plate (10 eggs/well), and 1 ml of egg water was added to each well of the plate. The compound of Example 1 was added to each well at the concentrations of 0.1 μM and 1 μM, so that the final volume of each well was 2 ml. Then, each 24-well plate was wrapped in foil to block light, and then incubated in a 28° C. incubator for 22 hours. At 32 hours after fertilization, in order to photograph the formation of black melanocytes, the chorion of the developing embryo was peeled off using a forcep (Fine Science Tools). After anesthetizing the developing embryo with Tricaine (4 g/L), the embryo was photographed on 3% methyl cellulose. As the equipment for photographing the developing embryo, a LEICA MZ10F fluorescence microscope, a LEICA DFC425 camera, and Leica Application Suite software (v4.5) were used. In all the experimental procedures, egg water sterilized after dissolving 60 mg/L of sea salt (Sigma-Aldrich, S9883) in tertiary distilled water was used as a solution for culturing the developing embryo. As a control group, a solvent control group (0.4% DMSO) and phenylthiourea (200 μM PTU), known as a tyrosinase inhibitor, were used (FIG. 6A).
In the same manner, experiments were performed with the compound of Comparative Example 1 at the concentrations of 0.5 μM, 1 μM, and 5 μM, and the results are shown in FIG. 6B.
On the other hand, in order to confirm the ability of the compound of the present invention to inhibit the melanin synthesis of the already generated melanocytes, the following experiment was performed with juvenile fish 60 hours after fertilization. Particularly, juvenile fish 60 hours after fertilization were placed in a 24-well plate (10/well), and 1 ml of egg water was added to each well of the plate. The compound of Example 1 was added to each well at the concentrations of 10 μM and 20 μM, so that the final volume of each well was 2 ml. Then, each 24-well plate was wrapped in foil to block light, and then incubated in a 28° C. incubator for 12 hours. In order to photograph the formation of black melanocytes, the developing embryo was anesthetized with Tricaine (4 g/L), and then the embryo was photographed on 3% methyl cellulose. […]

T1 sequence (Q12809 whole entry): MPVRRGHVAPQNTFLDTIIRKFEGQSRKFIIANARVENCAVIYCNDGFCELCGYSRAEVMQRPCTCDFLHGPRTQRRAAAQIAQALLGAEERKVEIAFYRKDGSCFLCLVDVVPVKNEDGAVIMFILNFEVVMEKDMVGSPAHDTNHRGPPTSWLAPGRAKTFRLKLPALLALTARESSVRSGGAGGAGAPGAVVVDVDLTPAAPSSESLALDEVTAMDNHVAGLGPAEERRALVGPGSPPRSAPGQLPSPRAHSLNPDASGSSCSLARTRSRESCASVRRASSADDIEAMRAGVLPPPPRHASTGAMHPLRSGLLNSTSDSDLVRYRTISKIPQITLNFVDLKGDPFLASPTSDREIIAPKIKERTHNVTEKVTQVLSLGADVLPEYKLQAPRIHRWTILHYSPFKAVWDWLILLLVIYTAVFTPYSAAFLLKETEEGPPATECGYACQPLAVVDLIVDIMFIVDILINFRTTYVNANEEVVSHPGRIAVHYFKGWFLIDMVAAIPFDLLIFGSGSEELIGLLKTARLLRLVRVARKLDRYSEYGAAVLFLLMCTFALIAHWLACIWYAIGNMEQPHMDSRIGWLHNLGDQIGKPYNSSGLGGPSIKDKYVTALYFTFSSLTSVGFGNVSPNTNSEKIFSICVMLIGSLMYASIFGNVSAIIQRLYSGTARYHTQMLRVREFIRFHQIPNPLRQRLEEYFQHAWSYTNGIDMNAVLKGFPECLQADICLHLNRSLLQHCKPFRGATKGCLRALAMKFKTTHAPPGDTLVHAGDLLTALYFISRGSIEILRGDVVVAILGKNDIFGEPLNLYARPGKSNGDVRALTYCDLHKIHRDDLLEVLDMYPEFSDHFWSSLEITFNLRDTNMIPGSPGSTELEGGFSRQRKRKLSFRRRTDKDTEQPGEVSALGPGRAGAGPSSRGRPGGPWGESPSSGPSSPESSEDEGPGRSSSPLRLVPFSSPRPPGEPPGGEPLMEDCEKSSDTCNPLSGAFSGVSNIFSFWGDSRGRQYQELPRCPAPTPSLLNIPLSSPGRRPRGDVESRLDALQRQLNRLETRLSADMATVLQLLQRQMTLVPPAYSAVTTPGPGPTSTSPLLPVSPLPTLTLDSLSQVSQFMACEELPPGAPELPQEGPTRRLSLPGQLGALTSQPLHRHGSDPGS

[O-][S+](c1ccc(F)cc1)c1nccc2ccccc12 (stereo not drawn) [Example 1, 1-((4-Fluorophenyl)Sulfinyl)Isoquinoline]
cytotoxicity ([1]; LPS-treated Raw 264.7, 0.1, 0.5, 1, 10 and 100 μM (FIG. 3)): no significant cytotoxicity
Cell viability (% of control) ([1]; LPS-treated Raw 264.7 cells, 24 hours, test concentration not given): 90 % of control
inhibition of the binding of the hERG channel protein (hERG channel protein): about 10%
synthesis of melanin (zebrafish; 1 μM, treated 10 hours after fertilization, read at 32 hours after fertilization, PTU 200 μM as control): level similar to that in the group treated with PTU
melanin synthesis inhibitory effect (zebrafish; 20 μM, treated 60 hours after fertilization, read at 72 hours after fertilization, compared to PTU 0.2 mM): superior melanin synthesis inhibitory effect compared to PTU
superior activity compared to Comparative Example 1 (melanin synthesis inhibition) (zebrafish; 32 hours after fertilization, 1 μM vs 5 μM for PTU-like effect): ≥ 5 fold
